# Test results published in ChEMBL document CHEMBL1122476 (J Med Chem, 1983).
# Target: Glutamate receptor ionotropic, AMPA (Rattus norvegicus, UniProt P19490+P19491+P19492+P19493)
# Test: Tested for inhibition of Specific DL-[H]Ionotropic glutamate receptor AMPA binding to rat brain membranes
# Type: cell membranes, Membrane
compound,measurement,value
COc1noc(C)c1CC(N)C(=O)O (stereo unspecified),IC50,> 100 µM
